Like-named read-outs stand apart in the source and are kept apart here.
Assays:
sarcosine oxidase [1] = experiment: Stirred vessel system, initial gradient of oxygen or hydrogen peroxide signal; assay type: biochemical; settings: for effect of substrate concentration on inhibition of the sarcosine oxidase, FIG. 16: 0.1 g/l sarcosine compared to 1.0 g/l sarcosine
From the text: In contrast to the FIA system the stirred vessel system is a discontinuous process. In order to perform a measurement all necessary reaction partners are brought into the reaction chamber of the stirred vessel system and the course of reaction is been monitored by the appropriate detectors during a fixed time period. Afterwards the whole reaction mixture is removed. Then a new measurement can be done.
The reaction mixture of the stirred vessel system in FIG. 11 consists of the sample, substrate, buffer solution and enzyme. Here, the sample and the enzyme are added one after another and the sample itself containing the analyte, acetic acid for instance, in different concentrations. […] The result of the measurement is calculated from the initial gradient of the signal.
During the calibration via the initial gradient samples of different analyte concentration are added and the relating initial inclines are drawn into the chart in dependence of the analyte concentration (see FIGS. 12, 13 and 14). The sample containing the unknown analyte concentration is added to the reaction mixture in the same manner and is determined by using the initial incline which is compared to the calibration curve.

sarcosine oxidase [2] = settings: for inhibition of the sarcosine oxidase activity, FIG. 10: sarcosine oxidase 100 U
From the text: In FIA systems an injected volume of the sample is transported to the detector by a continuous moving, not segmented carrier or transport flow via a mixing and reaction line. Meanwhile, the injected sample zone is broadened (dispersion) and reacts with the ingredients of the carrier flow. As a result of the chemical conversion, the changes in concentration of the participating components lead to a change of signal at the detector, which is characteristic for the concentration of the determined substance of the injected sample. In FIG. 1 the analyte (acetic acid) as well as the substrate (sarcosine) are injected as a sample into the carrier flow consisting of the working buffer. The mixing and reacting line contains the immobilized enzyme sarcosine oxidase, which reacts with the analyte and the substrate of the sample. The decrease of oxygen or the production of hydrogene peroxide is measured by means of an oxygen or hydrogene peroxide electrode. A typical measuring signal is reproduced in FIG. 2. The peak high H or surface S is proportional to the concentration of the sample. When calibrating via the peak heights, samples of different analyte concentrations are injected and the resulting peak heights in dependence of their analyte concentrations are drawn into a chart (FIG. 3). The sample of unknown analyte concentration is injected in the same manner and can be determined via the peak height with the help of the calibration curve. In FIG. 4 the substrate is added to the buffer solution and calibration is done by injecting the analyte. Again the analysis of the unknown sample can be be done by using the calibration curve as described in FIG. 5.

Compound: CC(=O)O [acetate]
- effect of substrate concentration on inhibition of the sarcosine oxidase, FIG. 16 (sarcosine oxidase [1]): substantial higher inhibition
- inhibition of the sarcosine oxidase activity, FIG. 10 (sarcosine oxidase [2]; 0.25 g/l respectively 0.5 g/l sarcosine): a considerable amount of inhibition
- inhibition of the sarcosine oxidase activity, FIG. 10 (sarcosine oxidase [2]; 1 g/l or 2 g/l sarcosine): only a small amount of inhibition
- inhibitor strength (inhibition of the measuring system), FIG. 7 (sarcosine oxidase [2]; substances arising in biotechnological media, maximum concentration 0.1 mol/l): quite strong

Compound: CCC(=O)O [propionate]
- effect of substrate concentration on inhibition of the sarcosine oxidase, FIG. 16 (sarcosine oxidase [1]): substantial higher inhibition

Compound: CC=O [acetaldehyde]
- effect of substrate concentration on inhibition of the sarcosine oxidase, FIG. 16 (sarcosine oxidase [1]): only slightly influenced
- amount of inhibition of the sarcosine oxidase (relative initial incline versus analyte concentration), FIG. 15 (sarcosine oxidase [1]; comparison of analytes, acetate and propionate as reference curves): lower

Reference: patent publication US20020098509A1, “Method for the quantitative determination of reversible acting inhibitors of the oxidoreductases” (priority 1995, published 2002)
